Data: US9796711B2, “Substituted pyrazolo[3,4-b]pyridin-6-carboxylic acids and method of use” (AbbVie S.àr.l., priority 2015, dated 2017)

Columns and labels:
ΔF508-CFTR [1] = target: T1, ΔF508-CFTR (Homo sapiens, UniProt P13569, DEL508-508); test: CFTR cell surface levels using HRP-tagged ΔF508-CFTR expressing CFBE cells, intrinsic corrector capacity; format: cell-based; details: for EC50: read-out: EC50
T1 construct: host or cells: CFBE41o-, doxycycline-inducible
Summary of the method: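 Here the cells express ΔF508-CFTR with horseradish peroxidase inserted in extracellular loop 4, so only rescued channel at the surface gives luminescent signal. Compounds act on their own, 20 h at the reduced temperature of 33 °C; values are percent activity relative to DMSO and a 3 μM corrector.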

ΔF508-CFTR [2] = target: T1, ΔF508-CFTR; test: CFTR cell surface levels using HRP-tagged ΔF508-CFTR expressing CFBE cells, in the presence of a co-corrector; format: cell-based; details: HRP-tagged ΔF508-CFTR expressing CFBE cells, in the presence of 3 μM co-corrector; for EC50: read-out: EC50
Summary of the method: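 Cells were seeded with 0.5 μg/mL doxycycline and held 68 h at 37 °C. Test compounds plus 3 μM co-corrector (final 0.1% DMSO) were then added for 20 h at 33 °C. Washed cells received HRP substrate, and luminescence was normalized between DMSO and 3 μM co-corrector controls.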

[3] = HRP-tagged ΔF508-CFTR expressing CFBE cells, intrinsic corrector capacity (no co-corrector), 33° C., 20 hours
[4] = HRP-tagged ΔF508-CFTR CFBE cells, compound alone (intrinsic corrector capacity), 20 hours at 33° C.

T1 sequence (P13569 with tags, fused parts or gaps DEL508-508): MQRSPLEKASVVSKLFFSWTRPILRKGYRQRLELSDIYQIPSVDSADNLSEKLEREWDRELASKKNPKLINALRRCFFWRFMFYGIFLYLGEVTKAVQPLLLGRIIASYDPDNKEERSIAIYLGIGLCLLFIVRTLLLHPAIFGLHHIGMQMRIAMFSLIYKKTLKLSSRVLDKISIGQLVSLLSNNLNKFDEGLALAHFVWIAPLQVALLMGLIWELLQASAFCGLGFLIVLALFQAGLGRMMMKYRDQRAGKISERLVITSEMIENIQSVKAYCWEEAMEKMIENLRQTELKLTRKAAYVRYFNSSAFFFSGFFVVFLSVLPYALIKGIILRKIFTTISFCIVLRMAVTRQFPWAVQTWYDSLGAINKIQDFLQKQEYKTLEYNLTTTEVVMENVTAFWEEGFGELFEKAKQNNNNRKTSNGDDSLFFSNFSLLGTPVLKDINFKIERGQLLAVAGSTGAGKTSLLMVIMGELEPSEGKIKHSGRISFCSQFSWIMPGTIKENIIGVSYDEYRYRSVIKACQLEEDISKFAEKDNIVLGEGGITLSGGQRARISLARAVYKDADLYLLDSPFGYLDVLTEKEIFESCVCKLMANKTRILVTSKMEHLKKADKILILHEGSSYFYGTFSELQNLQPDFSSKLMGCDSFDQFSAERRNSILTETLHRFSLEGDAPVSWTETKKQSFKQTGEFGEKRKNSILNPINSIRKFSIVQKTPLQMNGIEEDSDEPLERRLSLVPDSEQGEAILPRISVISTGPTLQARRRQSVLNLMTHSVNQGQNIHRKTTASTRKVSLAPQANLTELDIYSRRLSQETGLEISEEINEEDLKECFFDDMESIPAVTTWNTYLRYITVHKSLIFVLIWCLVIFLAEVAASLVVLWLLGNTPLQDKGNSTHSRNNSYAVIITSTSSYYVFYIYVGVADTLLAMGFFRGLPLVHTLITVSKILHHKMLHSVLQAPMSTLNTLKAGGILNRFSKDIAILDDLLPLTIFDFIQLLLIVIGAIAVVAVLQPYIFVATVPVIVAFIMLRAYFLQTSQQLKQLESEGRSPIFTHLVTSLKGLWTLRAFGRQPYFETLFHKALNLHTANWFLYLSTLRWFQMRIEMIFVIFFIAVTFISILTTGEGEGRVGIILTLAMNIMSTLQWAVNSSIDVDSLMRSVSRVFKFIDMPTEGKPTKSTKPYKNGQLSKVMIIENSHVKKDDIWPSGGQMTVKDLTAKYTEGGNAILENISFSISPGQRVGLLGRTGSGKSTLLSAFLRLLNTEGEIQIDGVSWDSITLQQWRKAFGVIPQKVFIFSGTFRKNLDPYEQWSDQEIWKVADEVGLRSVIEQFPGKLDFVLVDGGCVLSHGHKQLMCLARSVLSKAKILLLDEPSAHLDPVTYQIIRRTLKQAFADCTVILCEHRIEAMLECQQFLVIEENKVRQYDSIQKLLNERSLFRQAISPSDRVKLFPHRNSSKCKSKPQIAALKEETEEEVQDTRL

Structure (SMILES) | % Activation (ΔF508-CFTR [1]; [3]) [%] | EC50 (ΔF508-CFTR [1]; [3]) [nM] | % Activation (ΔF508-CFTR [2]) [%] | EC50 (ΔF508-CFTR [2]) [nM] | % Activation (ΔF508-CFTR [1]; [4]) [%] | EC50 (ΔF508-CFTR [1]; [4]) [nM]
O=C(O)c1cc(N2CCC3C(CCN3C3CCOCC3)C2)c2c(C3CCC3)nn(-c3ccc(F)cc3)c2n1 (stereo not drawn) [compound 903, 3-cyclobutyl-1-(4-fluorophenyl)-4-[1-(oxan-4-yl)octahydro-5H-pyrrolo[3,2-c]pyridin-5-yl]-1H-pyrazolo[3,4-b]pyridine-6-carboxylic acid] | 275.8 | 331 | 480.55 | 108 |  | 
O=C(O)c1cc(N2CCC3(CC2)CCN(C2COC2)CC3)c2c(C3CCC3)nn(-c3ccc(F)cc3)c2n1 [compound 904, 3-cyclobutyl-1-(4-fluorophenyl)-4-[9-(oxetan-3-yl)-3,9-diazaspiro[5.5]undecan-3-yl]-1H-pyrazolo[3,4-b]pyridine-6-carboxylic acid] | 200.1 | 237 | 372.85 | 102 |  | 
O=C(O)c1cc(N2CCC(N3CCOCC3)CC2)c2c(C3CCC3)nn(-c3cc(F)cc(F)c3)c2n1 [compound 905, 3-cyclobutyl-1-(3,5-difluorophenyl)-4-[4-(morpholin-4-yl)piperidin-1-yl]-1H-pyrazolo[3,4-b]pyridine-6-carboxylic acid] | 278.8 | 362 | 466.55 | 145 |  | 
O=C(O)c1cc(N2CCC(N3CCOCC3)CC2)c2c(C3CCC3)nn(-c3ccc4c(c3)OC(F)(F)O4)c2n1 [compound 906, 3-cyclobutyl-1-(2,2-difluoro-2H-1,3-benzodioxo1-5-yl)-4-[4-(morpholin-4-yl)piperidin-1-yl]-1H-pyrazolo[3,4-b]pyridine-6-carboxylic acid] | 276.92 | 146 | 485.34 | 72.8 |  | 
O=C(O)c1cc(N2CCC(N3CCOCC3)CC2)c2c(C3CCC3)nn(-c3ccc(F)c(F)c3)c2n1 [compound 907, 3-cyclobutyl-1-(3,4-difluorophenyl)-4-[4-(morpholin-4-yl)piperidin-1-yl]-1H-pyrazolo[3,4-b]pyridine-6-carboxylic acid] | 270.7 | 260 | 483.65 | 183 |  | 
COc1cc(-n2nc(C3CCC3)c3c(N4CCC(N5CCOCC5)CC4)cc(C(=O)O)nc32)ccc1F [compound 908, 3-cyclobutyl-1-(4-fluoro-3-methoxyphenyl)-4-[4-(morpholin-4-yl)piperidin-1-yl]-1H-pyrazolo[3,4-b]pyridine-6-carboxylic acid] | 220.2 | 256 | 486.75 | 171 |  | 
O=C(O)c1cc(N2CCC(N3CCOCC3)CC2)c2c(C3CCC3)nn(-c3ccc(OC(F)(F)F)cc3)c2n1 [compound 909, 3-cyclobutyl-4-[4-(morpholin-4-yl)piperidin-1-yl]-1-[4-(trifluoromethoxy)phenyl]-1H-pyrazolo[3,4-b]pyridine-6-carboxylic acid] | 277.7 | 134 | 498.4 | 56.2 |  | 
O=C(O)c1cc(N2CCC(N3CCOCC3)CC2)c2c(C3CCC3)nn(-c3ccc4c(c3)CC4)c2n1 [compound 911, 1-(bicyclo[4.2.0]octa-1,3,5-trien-3-yl)-3-cyclobutyl-4-[4-(morpholin-4-yl)piperidin-1-yl]-1H-pyrazolo[3,4-b]pyridine-6-carboxylic acid] | 222.45 | 190 | 405.9 | 74 |  | 
COc1ccc(-n2nc(C3CCC3)c3c(N4CCC(N5CCOCC5)CC4)cc(C(=O)O)nc32)cc1F [compound 912, 3-cyclobutyl-1-(3-fluoro-4-methoxyphenyl)-4-[4-(morpholin-4-yl)piperidin-1-yl]-1H-pyrazolo[3,4-b]pyridine-6-carboxylic acid] | 212.4 | 720 | 397.9 | 267 |  | 
COc1cc(F)cc(-n2nc(C3CCC3)c3c(N4CCC(N5CCOCC5)CC4)cc(C(=O)O)nc32)c1 [compound 913, 3-cyclobutyl-1-(3-fluoro-5-methoxyphenyl)-4-[4-(morpholin-4-yl)piperidin-1-yl]-1H-pyrazolo[3,4-b]pyridine-6-carboxylic acid] |  |  | 531.4 | 163 | 326.3 | 1150
O=C(O)c1cc(N2CCC(N3CCOCC3)CC2)c2c(C3CCC3)nn(-c3ccc(OC(F)F)cc3)c2n1 [compound 914, 3-cyclobutyl-1-[4-(difluoromethoxy)phenyl]-4-[4-(morpholin-4-yl)piperidin-1-yl]-1H-pyrazolo[3,4-b]pyridine-6-carboxylic acid] |  |  | 429.25 | 173 | 228.2 | 546
O=C(O)c1cc(N2CCC(N3CCOCC3)CC2)c2c(C3CCC3)nn(-c3cc(F)ccc3F)c2n1 [compound 916, 3-cyclobutyl-1-(2,5-difluorophenyl)-4-[4-(morpholin-4-yl)piperidin-1-yl]-1H-pyrazolo[3,4-b]pyridine-6-carboxylic acid] |  |  | 362.05 | 1380 | 165.25 | 1670
O=C(O)c1cc(N2CCC(N3CCOCC3)CC2)c2c(C3CCC3)nn(-c3ccc(OCCF)nc3)c2n1 [compound 917] |  |  | 306.95 | 1670 | 116.67 | 1660
O=C(O)c1cc(N2CCC(N3CCOCC3)CC2)c2c(C3CCC3)nn(-c3ccnc(OC4CCOCC4)c3)c2n1 [compound 918, 3-cyclobutyl-4-[4-(morpholin-4-yl)piperidin-1-yl]-1-{2-[(oxan-4-yl)oxy]pyridin-4-yl}-1H-pyrazolo[3,4-b]pyridine-6-carboxylic acid] |  |  | 352.1 | 479 | 149.75 | 712
O=C(O)c1cc(N2CCC(N3CCOCC3)CC2)c2c(C3CCC3)nn(-c3ccnc(OCC4CCOCC4)c3)c2n1 [compound 919, 3-cyclobutyl-4-[4-(morpholin-4-yl)piperidin-1-yl]-1-{2-[(oxan-4-yl)methoxy]pyridin-4-yl}-1H-pyrazolo[3,4-b]pyridine-6-carboxylic acid] |  |  | 416.35 | 256 | 198.2 | 490
CC(C)Oc1nn(C2CCCCC2)c2nc(C(=O)O)cc(-c3ccc(C#N)cc3)c12 [compound 923, 4-(4-cyanophenyl)-1-cyclohexyl-3-[(propan-2-yl)oxy]-1H-pyrazolo[3,4-b]pyridine-6-carboxylic acid] |  |  | 263 | 380 | 60.466 | 355
COC1CCN(C2CCN(c3cc(C(=O)O)nc4c3c(O)nn4-c3ccc(F)cc3)CC2)CC1 [compound 925, 1-(4-fluorophenyl)-3-hydroxy-4-(4-methoxy[1,4′-bipiperidin]-1′-yl)-1H-pyrazolo[3,4-b]pyridine-6-carboxylic acid] |  |  | 126.05 |  | 11.745 | 
COC1CCN(C2CCN(c3cc(C(=O)O)nc4c3c(OC(C)C)nn4-c3ccc(F)cc3)CC2)CC1 [compound 926, 1-(4-fluorophenyl)-4-(4-methoxy[1,4′-bipiperidin]-1′-yl)-3-[(propan-2-yl)oxy]-1H-pyrazolo[3,4-b]pyridine-6-carboxylic acid] |  |  | 486.6 | 340 | 240.2 | 521
CN1CCC2(CC1)CCN(c1cc(C(=O)O)nc3c1c(C1CCC1)nn3-c1ccc(F)cc1)CC2 [compound 928, 3-cyclobutyl-1-(4-fluorophenyl)-4-(9-methyl-3,9-diazaspiro[5.5]undecan-3-yl)-1H-pyrazolo[3,4-b]pyridine-6-carboxylic acid] |  |  | 362.2 | 2410 | 284.7 | 4030
CCOC(=O)N1CCN(c2cc(C(=O)O)nc3c2c(C2CCC2)nn3-c2ccc(F)cc2)CC1 [compound 929, 3-cyclobutyl-4-[4-(ethoxycarbonyl)piperazin-1-yl]-1-(4-fluorophenyl)-1H-pyrazolo[3,4-b]pyridine-6-carboxylic acid] |  |  | 560 | 83.2 | 474.3 | 181
